{
  "source": "a compilation of properties of binary mixtures (doi:10.1007/s10953-018-0732-1)",
  "assay": "xn = mol fraction of the nth substance listed",
  "details": "101.3 kPa",
  "data": [
    {"smiles": "c1c[nH]cn1", "note": "+ CCCC[N+]1(C)CCCC1.O=S(=O)([N-]S(=O)(=O)C(F)(F)F)C(F)(F)F", "values": [
      {"measurement": "viscosity", "setting": "323.15 K, x2 = 0.5", "result": 18.6, "unit": "mPa·s"},
      {"measurement": "viscosity", "setting": "333.15 K, x2 = 0.5", "result": 13.5, "unit": "mPa·s"},
      {"measurement": "viscosity", "setting": "343.15 K, x2 = 0.5", "result": 9.7, "unit": "mPa·s"},
      {"measurement": "viscosity", "setting": "353.15 K, x2 = 0.5", "result": 7.9, "unit": "mPa·s"}
    ]},
    {"smiles": "c1c[nH]cn1", "note": "+ CC(C)C[P+](C)(CC(C)C)CC(C)C.Cc1ccc(S(=O)(=O)[O-])cc1", "values": [
      {"measurement": "viscosity", "setting": "303.09 K, x2 = 0.5", "result": 357, "unit": "mPa·s"},
      {"measurement": "viscosity", "setting": "323.07 K, x2 = 0.5", "result": 100, "unit": "mPa·s"},
      {"measurement": "viscosity", "setting": "333.11 K, x2 = 0.5", "result": 63, "unit": "mPa·s"},
      {"measurement": "viscosity", "setting": "343.1 K, x2 = 0.5", "result": 43.3, "unit": "mPa·s"},
      {"measurement": "viscosity", "setting": "353.08 K, x2 = 0.5", "result": 32.8, "unit": "mPa·s"}
    ]},
    {"smiles": "CCCC[P+](CCCC)(CCCC)CCCC.CS(=O)(=O)[O-]", "note": "+ c1c[nH]cn1", "values": [
      {"measurement": "viscosity", "setting": "303.05 K, x1 = 0.5", "result": 176, "unit": "mPa·s"},
      {"measurement": "viscosity", "setting": "323.05 K, x1 = 0.5", "result": 61, "unit": "mPa·s"},
      {"measurement": "viscosity", "setting": "333.05 K, x1 = 0.5", "result": 40.2, "unit": "mPa·s"},
      {"measurement": "viscosity", "setting": "343.05 K, x1 = 0.5", "result": 29.5, "unit": "mPa·s"}
    ]},
    {"smiles": "c1c[nH]cn1", "note": "+ CCCCCC[N+]1(C)CCCC1.O=S(=O)([N-]S(=O)(=O)C(F)(F)F)C(F)(F)F", "values": [
      {"measurement": "viscosity", "setting": "323.15 K, x2 = 0.5", "result": 23.8, "unit": "mPa·s"},
      {"measurement": "viscosity", "setting": "333.15 K, x2 = 0.5", "result": 16, "unit": "mPa·s"}
    ]}
  ]
}
